According to US8455497B2, “Inhibitors of aspartyl protease” (Vertex Pharmaceuticals Incorporated, priority 1999, dated 2013):

What was measured:
[1] = test system: EP13 multi protease inhibitor resistant virus; experiment: Anti-viral activity against resistant virus EP13 in MT4 cells; format: cell-based, HIV-1; conditions: Human immunodeficiency virus 1, MT4, read-out: EP13 mutant IC50, EP13 multi protease inhibitor resistant virus, MT4 cells
Method in brief: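 MT4 cells infected for 1 h at 37 °C, MOI 100×TCID50, then diluted 6-fold onto pre-diluted compound and cultured 5 days (5% CO2). Viable-cell DNA content estimated by propidium iodide. EP13 carries protease mutations M46I, L63P, A71V, V82F/L, I84V, no RT mutations.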

HIV-1 (strain IIIB) = experiment: Antiviral activity assay in MT4 cells (propidium iodide based); format: cell-based; conditions: Human immunodeficiency virus 1, IIIB; wild type HIV-1 virus, MT4 cells; read-out: Wildtype virus - IC50
Method in brief: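 MT4 cells infected with HIV-1 IIIB (MOI 100×TCID50, 1 hr, 37°C), diluted 6-fold into wells with serially diluted compound, incubated 5 days. Cells lysed with Nonidet-40; DNA content per well estimated by propidium iodide staining as the viability read-out, with mock-infected controls.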

[2] = test system: D545701-14 multi protease inhibitor resistant virus; experiment: Anti-viral activity against resistant virus D545701-14 in MT4 cells; format: cell-based, HIV-1; conditions: Human immunodeficiency virus 1, MT4, read-out: D545701-14 mutant - IC50, D545701-14 multi protease inhibitor resistant virus, MT4 cells

Row | Structure (SMILES) | IC50 [1] [nM] | IC50 (HIV-1 (strain IIIB)) [nM] | IC50 [2] [nM]
1 | CC(C)CN(C[C@@H](O)[C@H](Cc1ccc(OCC(N)=O)cc1)NC(=O)O[C@H]1CO[C@H]2OCC[C@H]21)S(=O)(=O)c1ccc2c(c1)OCO2 [Compound 314, (3R,3aS,6aR)-Hexahydrofuro[2,3-b]furan-3-yl (1S,2R)-1-[4-(2-amino-2-oxoethoxy)benzyl]-3-[(1,3-benzodioxol-5-ylsulfonyl)(isobutyl)amino]-2-hydroxypropylcarbamate] | 10 to 100 | 10 to 100 | 10 to 100
2 | CNC(=O)COc1ccc(C[C@H](NC(=O)O[C@H]2CO[C@H]3OCC[C@H]32)[C@H](O)CN(CC(C)C)S(=O)(=O)c2ccc3c(c2)OCO3)cc1 [Compound 315, (3R,3aS,6aR)-Hexahydrofuro[2,3-b]furan-3-yl (1S,2R)-3[(1,3-benzodioxol-5-ylsulfonyl)(isobutyl)amino]-2-hydroxy-1-{4-[2-(methylamino)-2-oxoethoxy]benzyl}propylcarbamate] | 1 to 10 | 10 to 100 | 1 to 10
3 | CC(C)CN(C[C@@H](O)[C@H](Cc1ccc(OCCCCO)cc1)NC(=O)O[C@H]1CO[C@H]2OCC[C@H]21)S(=O)(=O)c1ccc2c(c1)OCO2 [Compound 317, (3R,3aS,6aR)-Hexahydrofuro[2,3-b]furan-3-yl (1S,2R)-3-[(1,3-benzodioxol-5-ylsulfonyl)(isobutyl)amino]-2-hydroxy-1-[4-(4-hydroxybutoxy)benzyl]propylcarbamate] | 1 to 10 | 1 to 10 | 1 to 10
4 | CNC(=O)OCCCCOc1ccc(C[C@H](NC(=O)O[C@H]2CO[C@H]3OCC[C@H]32)[C@H](O)CN(CC(C)C)S(=O)(=O)c2ccc3c(c2)OCO3)cc1 [Compound 318, (3R,3aS,6aR)-Hexahydrofuro[2,3-b]furan-3-yl (1S,2R)-3-[(1,3-benzodioxol-5-ylsulfonyl)(isobutyl)amino]-2-hydroxy-1-[4-(4-{[(methylamino)carbonyl]oxy}butoxy)benzyl]propylcarbamate] | 1 to 10 | 1 to 10 | 1 to 10
5 | CC(C)CN(C[C@@H](O)[C@H](Cc1ccc(OCCCO)cc1)NC(=O)O[C@H]1CO[C@H]2OCC[C@H]21)S(=O)(=O)c1ccc2c(c1)OCO2 [Compound 319, (3R,3aS,6aR)-Hexahydrofuro[2,3-b]furan-3-yl (1S,2R)-3-[(1,3-benzodioxol-5-ylsulfonyl)(isobutyl)amino]-2-hydroxy-1-[4-(3-hydroxypropoxy)benzyl]propylcarbamate] | 1 to 10 | 1 to 10 | 1 to 10
6 | CNC(=O)OCCCOc1ccc(C[C@H](NC(=O)O[C@H]2CO[C@H]3OCC[C@H]32)[C@H](O)CN(CC(C)C)S(=O)(=O)c2ccc3c(c2)OCO3)cc1 [Compound 320, (3R,3aS,6aR)-Hexahydrofuro[2,3-b]furan-3-yl (1S,2R)-3[(1,3-benzodioxol-5-ylsulfonyl)(isobutyl)amino]-2-hydroxy-1-[4-(3-{[(methylamino)carbonyl]oxy}propoxy)benzyl]propylcarbamate] | 1 to 10 | 1 to 10 | 1 to 10
7 | CC(C)CN(C[C@@H](O)[C@H](Cc1ccc(OCCCOC(N)=O)cc1)NC(=O)O[C@H]1CO[C@H]2OCC[C@H]21)S(=O)(=O)c1ccc2c(c1)OCO2 [Compound 321, (3R,3aS,6aR)-Hexahydrofuro[2,3-b]furan-3-yl (1S,2R)-1-(4-{3-[(aminocarbonyl)oxy]propoxy}benzyl)-3-[(1,3-benzodioxol-5-ylsulfonyl)(isobutyl)amino]-2-hydroxypropylcarbamate] | 1 to 10 | 1 to 10 | 1 to 10
8 | CC(C)CN(C[C@@H](O)[C@H](Cc1ccc(OCCO)cc1)NC(=O)O[C@H]1CO[C@H]2OCC[C@H]21)S(=O)(=O)c1ccc2c(c1)OCO2 [Compound 322, (3R,3aS,6aR)-Hexahydrofuro[2,3-b]furan-3-yl (1S,2R)-3-[(1,3-benzodioxol-5-ylsulfonyl)(isobutyl)amino]-2-hydroxy-1-[4-(2-hydroxyethoxy)benzyl]propylcarbamate] | 1 to 10 | 1 to 10 | 1 to 10
9 | CNC(=O)OCCOc1ccc(C[C@H](NC(=O)O[C@H]2CO[C@H]3OCC[C@H]32)[C@H](O)CN(CC(C)C)S(=O)(=O)c2ccc3c(c2)OCO3)cc1 [Compound 323, (3R,3aS,6aR)-Hexahydrofuro[2,3-b]furan-3-yl (1S,2R)-3-[(1,3-benzodioxol-5-ylsulfonyl)(isobutyl)amino]-2-hydroxy-1-[4-(2-{[(methylamino)carbonyl]oxy}ethoxy)benzyl]propylcarbamate] | 1 to 10 | 1 to 10 | 1 to 10
10 | CC(C)CN(C[C@@H](O)[C@H](Cc1ccc(OCCN2CCSC2)cc1)NC(=O)O[C@H]1CO[C@H]2OCC[C@H]21)S(=O)(=O)c1ccc2c(c1)OCO2 [Compound 324, (3R,3aS,6aR)-Hexahydrofuro[2,3-b]furan-3-yl (1S,2R)-3-[(1,3-benzodioxol-5-ylsulfonyl)(isobutyl)amino]-2-hydroxy-1-{4-[2-(1,3-thiazolidin-3-yl)ethoxy]benzyl}propylcarbamate] | 1 to 10 | 1 to 10 | 1 to 10
11 | CCOC(=O)COc1ccc(C[C@H](NC(=O)O[C@H]2CO[C@H]3OCC[C@H]32)[C@H](O)CN(CC(C)C)S(=O)(=O)c2ccc3c(c2)OCO3)cc1 [Compound 326, Ethyl (4-{(2S,3R)-2-({[(3R,3aS,6aR)-hexahydrofuro[2,3-b]furan-3-yloxy]carbonyl}amino)-4-[(1,3-benzodioxol-5-ylsulfonyl)(isobutyl)amino]-3-hydroxybutyl}phenoxy) acetate] | 10 to 100 | 1 to 10 | 10 to 100
12 | CCC(CC)ON(C[C@@H](O)[C@H](Cc1ccc(OCc2ccccc2)cc1)NC(=O)O[C@H]1CO[C@H]2OCC[C@H]21)S(=O)(=O)c1ccc2c(c1)OCO2 [Compound 329, (3R,3aS,6aR)-Hexahydrofuro[2,3-b]furan-3-yl (1S,2R)-3-[(1,3-benzodioxol-5-ylsulfonyl)(1-ethylpropoxy)amino]-1-[4-(benzyloxy)benzyl]-2-hydroxypropylcarbamate] | 10 to 100 | 1 to 10 | 10 to 100
13 | CC(C)CN(C[C@@H](O)[C@H](Cc1ccc(OC(=N)N(C)C)cc1)NC(=O)O[C@H]1CO[C@H]2OCC[C@H]21)S(=O)(=O)c1ccc2c(c1)OCO2 [Compound 331, (3R,3aS,6aR)-Hexahydrofuro[2,3-b]furan-3-yl (1S,2R)-3-[(1,3-benzodioxol-5-ylsulfonyl)(isobutyl)amino]-1-{4-[(dimethylamino) (imino)methoxy]benzyl}-2-hydroxypropylcarbamate] | 10 to 100 | 10 to 100 | 10 to 100
14 | CC(C)CN(C[C@@H](O)[C@H](Cc1ccc(Oc2nc(F)c(F)c(F)c2F)cc1)NC(=O)O[C@H]1CO[C@H]2OCC[C@H]21)S(=O)(=O)c1ccc2c(c1)OCO2 [Compound 332, (3R,3aS,6aR)-hexahydrofuro[2,3-b]furan-3-yl (1S,2R)-3-[(1,3-benzodioxol-5-ylsulfonyl)(isobutyl)amino]-2-hydroxy-1-{4-[(3,4,5,6-tetrafluoro-2-pyridinyl)oxy]benzyl}propylcarbamate] | 1 to 10 | 1 to 10 | 10 to 100
15 | CC(C)CN(C[C@@H](O)[C@H](Cc1ccc(Oc2ccc([N+](=O)[O-])cn2)cc1)NC(=O)O[C@H]1CO[C@H]2OCC[C@H]21)S(=O)(=O)c1ccc2c(c1)OCO2 [Compound 333, (3R,3aS,6aR)-hexahydrofuro[2,3-b]furan-3-yl (1S,2R)-3-[(1,3-benzodioxol-5-ylsulfonyl)(isobutyl)amino]-2-hydroxy-1-{4-[(5-nitro-2-pyridinyl)oxy]benzyl}propylcarbamate] | 1 to 10 | 1 to 10 | 1 to 10
16 | CC(C)CN(C[C@@H](O)[C@H](Cc1ccc(Oc2c(C(=O)O)cc([N+](=O)[O-])cc2[N+](=O)[O-])cc1)NC(=O)O[C@H]1CO[C@H]2OCC[C@H]21)S(=O)(=O)c1ccc2c(c1)OCO2 [Compound 334, 2-(4-{(2S,3R)-2-({[(3R,3aS,6aR)-hexahydrofuro[2,3-b]furan-3-yloxy]carbonyl}amino)-4-[(1,3-benzodioxol-5-ylsulfonyl)(isobutyl)amino]-3-hydroxybutyl}phenoxy)-3,5-dinitrobenzoic Acid] | 1 to 10 | 1 to 10 | 1 to 10
17 | CC(C)CN(C[C@@H](O)[C@H](Cc1ccc(Oc2ccc(C#N)cn2)cc1)NC(=O)O[C@H]1CO[C@H]2OCC[C@H]21)S(=O)(=O)c1ccc2c(c1)OCO2 [Compound 335, (3R,3aS,6aR)-hexahydrofuro[2,3-b]furan-3-yl (1S,2R)-3-[(1,3-benzodioxol-5-ylsulfonyl)(isobutyl)amino]-1-{4-[(S-cyano-2-pyridinyl)oxy]benzyl}-2-hydroxypropylcarbamate] | 1 to 10 | 1 to 10 | 1 to 10
18 | CC(C)CN(C[C@@H](O)[C@H](Cc1ccc(Oc2ccc([N+](=O)[O-])cc2[N+](=O)[O-])cc1)NC(=O)O[C@H]1CO[C@H]2OCC[C@H]21)S(=O)(=O)c1ccc2c(c1)OCO2 [Compound 336, (3R,3aS,6aR)-hexahydrofuro[2,3-b]furan-3-yl (1S,2R)-3-[(1,3-benzodioxol-5-ylsulfonyl)(isobutyl)amino]-1-[4-(2,4-dinitrophenoxy)benzyl]-2-hydroxypropylcarbamate] | 1 to 10 | 1 to 10 | 1 to 10
